Experimental findings from patent US20250257075A1, “MACROCYCLIC INHIBITORS OF KRAS FOR THE TREATMENT OF CANCER” (Hoffmann-La Roche Inc., priority 2022, published 2025) are described below.

One series deals with human hepatocytes. Description: Human hepatocyte stability assay. Format: in vitro ADME. To be noted: for Clearance Category: human hepatocytes. The protocol: The hepatocyte stability assay measures the rate of disappearance of a compound from incubations with cryopreserved suspension hepatocytes from human. Positive controls, including Midazolam, Raloxifene and Dextromethorphan, are included in every experiment. Incubations consist of 1 μM tested compound and suspension of human hepatocytes (1×10^6 cells/mL) in supplemented Williams' E Medium with 10% FBS and 0.5% Penicillin-streptomycin. The hepatocyte suspension was incubated with intermittent shaking 900 rpm at 37° C., in a 5% CO2 incubator. The reaction was stopped by adding methanol containing internal standard (2 μM Tolbutamide) at 2, 10, 20, 40, 60 and 120 minutes after compound addition, depletion of the parent compound was monitored by LC-MS/MS analysis.

In a further series the test system is SW620 cells (KRAS G12V). Description: Cell viability assay, G12V. The series is classed as cell-based, human. The following applies: Homo sapiens, SW-620; SW620, 72 hrs, Cell Counting Kit-8. A digest of the protocol:
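Seed NCI-H358 5,000/well, AGS and SW620 2,000/well; overnight. Compound, 0.5% DMSO final, 72 hrs. CCK-8 2 hrs, OD450–OD650. IC50: 4-parameter fit.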
A general note: Tetrazolium dyes change colour on reduction, which living cells bring about.

Series [1] deals with T1, KRAS G12C-BRAF complex (Homo sapiens, UniProt P01116+P62937, G12C).
T1 construct: expressed in transfected cells
T1 sequence (P01116 1-188 isoform P01116-2 G12C): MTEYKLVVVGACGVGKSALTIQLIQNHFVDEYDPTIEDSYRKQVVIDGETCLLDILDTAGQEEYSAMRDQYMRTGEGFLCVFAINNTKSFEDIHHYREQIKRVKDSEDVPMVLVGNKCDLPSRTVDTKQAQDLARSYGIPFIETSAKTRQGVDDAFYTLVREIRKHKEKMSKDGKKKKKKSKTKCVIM
T1 sequence (P62937 whole entry): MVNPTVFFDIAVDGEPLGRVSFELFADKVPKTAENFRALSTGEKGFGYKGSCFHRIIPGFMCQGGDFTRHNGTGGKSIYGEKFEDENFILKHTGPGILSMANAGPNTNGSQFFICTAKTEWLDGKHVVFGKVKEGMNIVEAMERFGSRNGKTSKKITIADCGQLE
Description: KRAS G12C-BRAF NanoBit assay in HEK293 cells. Format: cell-based. To be noted: HEK293 stable cell pool, 3 hours of incubation. A digest of the protocol: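 HEK293 stable pool co-expressing SmBiT-KRAS G12C and BRAF RBD-LgBiT, exposed 3 h to compounds (16-point 3-fold dilution, top final 30 μM). Luminescence was read 20 min after Nano-Glo Live Cell substrate addition. A decrease versus DMSO control indicates disruption of the complex.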

Series [2] deals with T1, KRAS G12C-BRAF complex. Description: KRAS-BRAF with CYPA (500 nM) interaction assay (TR-FRET), G12C. Format: biochemical. The following applies: 3 hours. A digest of the protocol:
(§1)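 TR-FRET (Ex320 nm, Em 665/615 nm) measured compound- or compound-CYPA-dependent disruption of KRAS-BRAF complex, with CYPA at 500 nM. Disruption scored as decrease in TR-FRET ratio versus DMSO control wells.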

Series [3] addresses KRAS G12D binding to BRAF (Homo sapiens, UniProt P01116+P62937, G12D). Description: KRAS-BRAF with CYPA (500 nM) interaction assay (TR-FRET), G12D. Format: biochemical. The following applies: 3 hours. A digest of the protocol: as §1
In general terms: In TR-FRET formats the signal depends on donor and acceptor labels being close together.

Series [4] has as its target KRAS G12V binding to BRAF (Homo sapiens, UniProt P01116+P62937, G12V). Description: KRAS-BRAF with CYPA (500 nM) interaction assay (TR-FRET), G12V. Format: biochemical. The following applies: 3 hours. A digest of the protocol: as §1
Series [5] can be described thus: Single Dose Pharmacokinetics (SDPK) study in female BALB/c mice. The series is classed as in vivo. The following applies: mouse; for clearance: 3 mg/kg, iv; for clearance / AUC(0-t) / Cmax: female BALB/c mice, plasma. The protocol:
The purpose of this study was to determine the pharmacokinetics of selected compounds following single intravenous bolus or oral gavage administration in female BALB/c mice. Briefly, two groups of female BALB/c mice (available from Zhejiang Vital River Laboratory Animal Technology Co., Ltd. or Shanghai Lingchang Biotechnology Co., Ltd) (N=3/group) were treated with a single dose of compound intravenously at 3 mg/kg (IV) or orally at 30 mg/kg (PO). Blood samples were collected at 5 min (only for IV), 15 min, 30 min, 1 h, 2 h, 4 h, 7 h and 24 h post-dose. Blood samples were placed on ice until centrifugation to obtain plasma samples. The concentration of compound in plasma samples was determined using LC-MS/MS method. The pharmacokinetic parameters were calculated by non-compartmental analysis.

Where [6] appears, read: 1 μM compound, human hepatocytes 1×10^6 cells/mL.

KRAS G12D binding to BRAF, sequence (P01116 1-188 isoform P01116-2 G12D): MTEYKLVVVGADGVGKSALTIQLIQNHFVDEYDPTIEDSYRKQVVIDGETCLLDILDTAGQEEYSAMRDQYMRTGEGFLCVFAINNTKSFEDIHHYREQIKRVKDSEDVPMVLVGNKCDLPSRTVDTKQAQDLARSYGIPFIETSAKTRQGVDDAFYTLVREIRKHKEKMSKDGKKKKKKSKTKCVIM
KRAS G12D binding to BRAF, sequence (P62937 whole entry): as the sequence (P62937 whole entry) above
KRAS G12V binding to BRAF, sequence (P01116 1-188 isoform P01116-2 G12V): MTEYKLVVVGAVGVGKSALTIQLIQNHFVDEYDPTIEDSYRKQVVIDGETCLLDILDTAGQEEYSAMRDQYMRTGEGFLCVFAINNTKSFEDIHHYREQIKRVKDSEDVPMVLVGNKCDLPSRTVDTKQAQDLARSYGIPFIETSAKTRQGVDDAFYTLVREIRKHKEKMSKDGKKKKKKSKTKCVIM
KRAS G12V binding to BRAF, sequence (P62937 whole entry): as the sequence (P62937 whole entry) above

For the compound `CO[C@@H](C)c1ncc(N2CCN(C)CC2)cc1-c1c2c3cc(c(F)cc3n1CC(F)(F)F)-c1csc(n1)C[C@H](NC(=O)[C@H](C(C)C)N(C)C(=O)[C@H]1C[C@@H](C#CC(F)(F)F)C1)C(=O)N1CCC[C@H](N1)C(=O)OCC(C)(C)C2` (atropisomer, axis not shown; (M)) [Example 3, cis-N-[(1S)-1-[[(7S,13S)-24-fluoro-(20M)-20-[2-[(1S)-1-methoxyethyl]-5-(4-methylpiperazin-1-yl)-3-pyridyl]-17,17-dimethyl-8,14-dioxo-21-(2,2,2-trifluoroethyl)-15-oxa-4-thia-9,21,27,28-tetrazapentacyclo[17.5.2.1^2,5.1^9,13.0^22,26]octacosa-1(25),2,5(28),19,22(26),23-hexaen-7-yl]carbamoyl]-2-methyl-propyl]-N-methyl-3-(3,3,3-trifluoroprop-1-ynyl)cyclobutanecarboxamide], the “CL_hep (Human)” value with human hepatocytes (human, 1 μM) came out at 3.6 mL/min/kg. In addition, the IC50 (in general, the point on the concentration scale where inhibition reaches its midpoint) is 2.18 µM with SW620 cells (KRAS G12V); 0.036 µM against KRAS G12C-BRAF complex [1]; 0.099 µM at KRAS G12C-BRAF complex [2]; > 10 µM in series [3]; > 10 µM in series [4].
Turning to `CCn1c(-c2cc(N3CCN(CC(F)(F)F)CC3)cnc2[C@H](C)OC)c2c3cc(c(F)cc31)-c1csc(n1)C[C@H](NC(=O)[C@H](C(C)C)N(C)C(=O)[C@H]1C[C@@H](C#CC(F)(F)F)C1)C(=O)N1CCC[C@H](N1)C(=O)OCC(C)(C)C2` (atropisomer, axis not shown; (M)) [Example 8, cis-N-[(1S)-1-[[(7S,13S)-21-ethyl-24-fluoro-(20M)-20-[2-[(1S)-1-methoxyethyl]-5-[4-(2,2,2-trifluoroethyl)piperazin-1-yl]-3-pyridyl]-17,17-dimethyl-8,14-dioxo-15-oxa-4-thia-9,21,27,28-tetrazapentacyclo[17.5.2.1^2,5.1^9,13.0^22,26]octacosa-1(25),2,5(28),19,22(26),23-hexaen-7-yl]carbamoyl]-2-methyl-propyl]-N-methyl-3-(3,3,3-trifluoroprop-1-ynyl)cyclobutanecarboxamide], the “CL_hep (Human)” value in the series on human hepatocytes (setting [6]) was found to be 2.9 mL/min/kg. For the same compound, the “Clearance Category” value in the series on human hepatocytes is recorded as “low (CL_hep (mL/min/kg)<6.96 is low clearance)”. Besides, the IC50 with SW620 cells (KRAS G12V) was > 5 µM; against KRAS G12C-BRAF complex [1], 0.054 µM; at KRAS G12C-BRAF complex [2], 0.118 µM; in series [3] it was > 10 µM; in series [4], > 10 µM.
On to `CCn1c(-c2cc(N3CCOCC3)cnc2[C@H](C)OC)c2c3cc(c(F)cc31)-c1csc(n1)C[C@H](NC(=O)[C@H](C(C)C)N(C)C(=O)[C@H]1C[C@@H](C#CC(F)(F)F)C1)C(=O)N1CCC[C@H](N1)C(=O)OCC(C)(C)C2` (atropisomer, axis not shown; (M)) [Example 11, cis-N-[(1S)-1-[[(7S,13S)-21-ethyl-24-fluoro-(20M)-20-[2-[(1S)-1-methoxyethyl]-5-morpholino-3-pyridyl]-17,17-dimethyl-8,14-dioxo-15-oxa-4-thia-9,21,27,28-tetrazapentacyclo[17.5.2.1^2,5.1^9,13.0^22,26]octacosa-1(25),2,5(28),19,22(26),23-hexaen-7-yl]carbamoyl]-2-methyl-propyl]-N-methyl-3-(3,3,3-trifluoroprop-1-ynyl)cyclobutanecarboxamide], for which the “AUC0-last relative to A168” value in series [5] (30 mg/kg, po, versus A168) worked out at 1.5 folds. The “Cmax relative to A168” value in series [5] (30 mg/kg, po, versus A168) is listed as ~2 folds. Besides, the clearance (in general, the rate of elimination divided by the concentration) in series [5] amounted to 14.2 mL/min/kg. Further, the AUC(0-t) (commonly exposure summed from dosing to a finite time, without extrapolation to infinity) in series [5] (30 mg/kg, po) amounted to 2180 ng·h/mL. In addition, the Cmax – broadly, the highest concentration seen after dosing – in series [5] (30 mg/kg, po) turned out to be 1510 ng/mL. For the same compound, the “CL_hep (Human)” value in the series with human hepatocytes (setting [6]) turned out to be 3.3 mL/min/kg. Besides, in the series with human hepatocytes, the “Clearance Category” value is “low (CL_hep (mL/min/kg)<6.96 is low clearance)”. The IC50 in the series with SW620 cells (KRAS G12V) was 1.37 µM; against KRAS G12C-BRAF complex [1] it was 0.012 µM; on KRAS G12C-BRAF complex [2] it was 0.065 µM; in series [3], > 10 µM; in series [4], > 10 µM.
For the compound `CC#CC(=O)N1CC[C@H](C(=O)N(C)[C@H](C(=O)N[C@H]2Cc3nc(cs3)-c3ccc4c(c3)c(c(-c3cccnc3[C@H](C)OC)n4CC)CC(C)(C)COC(=O)[C@@H]3CCCN(N3)C2=O)C(C)C)C1` [Example A168, reference compound], the clearance in series [5] is 77 mL/min/kg. This compound also yielded an AUC(0-t) in series [5] (30 mg/kg, po) of 1580 ng·h/mL. The Cmax in series [5] (30 mg/kg, po) was 794 ng/mL. The “CL_hep (Human)” value in the series with human hepatocytes (setting [6]) is 8.8 mL/min/kg. In addition, the “Clearance Category” value in the series with human hepatocytes was “medium (16.24<CL_hep (mL/min/kg) >6.96 is medium clearance)”. Further, the IC50 in the series on SW620 cells (KRAS G12V) is 0.121 µM; against KRAS G12C-BRAF complex [1], 0.205 µM; at KRAS G12C-BRAF complex [2] it was 0.173 µM; in series [3], > 10 µM; in series [4], 3.62 µM.
